Assay results as given in patent US8883789B2, “Piperazine derivatives and their use as positive allosteric modulators of mGluR5 receptors” (Boehringer Ingelheim International GmbH, priority 2011, dated 2014).
pEC50: −log10 of the molar value.

Target: T1, human recombinant mGluR5 (Homo sapiens, UniProt P41594)
T1 construct: expressed in transfected cells; hygromycin and geneticin selection
Test: positive modulation of mGluR5, calcium based FLIPR assay
Settings: HEK 293 cell line expressing human recombinant mGluR5; Ca2+ peak height after glutamate at approximately 5% basal stimulation; nonlinear regression
Description: The positive modulation of mGluR5 is measured in a HEK 293 cell line expressing human recombinant mGluR5 and is detected with calcium based FLIPR assay. The cells are cultured with DMEM supplemented with 10% FCS, 2 μg/mL tetracycline, 100 μg/mL hygromycin and 500 μg/mL geneticin. The cell culture media is exchanged for tetracycline-free cell culture media 3-7 days before the assay. One day before the assay the cell culture medium is exchanged to DMEM without glutamine and phenol red and supplemented with 10% FCS, 100 μg/mL hygromycin and 500 μg/mL geneticin. On the assay day, the medium of the subconfluent cultures is removed and the cells are detached by addition of 2.5 ml EDTA (0.02%) per 175 cm2 culture flask for 1 minute. The cells are resuspend in Ringer solution (140 mM NaCl, 5 mM KCl, 2.5 mM CaCl2, 1.5 mM MgCl2, 5 mM Glucose, 10 mM Hepes; adjusted to pH 7.4 with NaOH), pooled and Ringer solution added to adjust the volume to 50 mL. The cell suspension is centrifuged for […] at 1500 U/min (425 g). The supernatant is removed and the cells washed a second time with 50 ml fresh Ringer solution and centrifuged again as before. The supernatant is again removed and the pellet resuspended in Ringer solution to 1,000,000 cells/ml (1×10^6 cells/mL). The cells are plated onto BD BioCoat Poly-D-Lysine 384 well plates (20.000 cells/well; 20 μl/well). The lid covered plates are then incubated until use at 37° C./10% CO2. For dye loading, 20 μl of Calcium-4 assay kit solution (prepared according to the manufacturer's description in Ringer solution) are added to the cells and the plates are incubated for 80 min 37° C. and then 10 min at room temperature.
Controls, Compound Dilution and Assay Execution:
Each assay plate contained wells with “high” and “low” controls:
Low controls 1% DMSO/ringer solution+basal glutamate activation (defined as 100% CTL).
High controls 10 μM CDPPB+basal glutamate activation (defined as 200% CTL).
Test compounds are dissolved and diluted in DMSO to 100-fold the desired concentrations. In a second step, the compounds are diluted in Ringer solution such that the compounds are 4-fold more concentrated than the desired final assay concentration. The final DMSO concentration was 1%.
20 μl of each compound solution are then transferred to the assay plate and the Ca2+ kinetic is measured to determine any intrinsic compound activity. After 5 min incubation in the FLIPR device, the second stimulation with 20 μl of glutamate in Ringer solution (glutamate concentration adjusted to approximately 5% basal stimulation of the maximal possible glutamate effect) is added and the kinetic Ca2+ response of the wells was measured for the modulation effect.
The peak height of the Ca release related fluorescence signal (9-66) is used for the EC50.
The EC50 of the modulation is calculated over a nonlinear regression with GraphPad Prism (Table 1).

T1 sequence (P41594 21-1212): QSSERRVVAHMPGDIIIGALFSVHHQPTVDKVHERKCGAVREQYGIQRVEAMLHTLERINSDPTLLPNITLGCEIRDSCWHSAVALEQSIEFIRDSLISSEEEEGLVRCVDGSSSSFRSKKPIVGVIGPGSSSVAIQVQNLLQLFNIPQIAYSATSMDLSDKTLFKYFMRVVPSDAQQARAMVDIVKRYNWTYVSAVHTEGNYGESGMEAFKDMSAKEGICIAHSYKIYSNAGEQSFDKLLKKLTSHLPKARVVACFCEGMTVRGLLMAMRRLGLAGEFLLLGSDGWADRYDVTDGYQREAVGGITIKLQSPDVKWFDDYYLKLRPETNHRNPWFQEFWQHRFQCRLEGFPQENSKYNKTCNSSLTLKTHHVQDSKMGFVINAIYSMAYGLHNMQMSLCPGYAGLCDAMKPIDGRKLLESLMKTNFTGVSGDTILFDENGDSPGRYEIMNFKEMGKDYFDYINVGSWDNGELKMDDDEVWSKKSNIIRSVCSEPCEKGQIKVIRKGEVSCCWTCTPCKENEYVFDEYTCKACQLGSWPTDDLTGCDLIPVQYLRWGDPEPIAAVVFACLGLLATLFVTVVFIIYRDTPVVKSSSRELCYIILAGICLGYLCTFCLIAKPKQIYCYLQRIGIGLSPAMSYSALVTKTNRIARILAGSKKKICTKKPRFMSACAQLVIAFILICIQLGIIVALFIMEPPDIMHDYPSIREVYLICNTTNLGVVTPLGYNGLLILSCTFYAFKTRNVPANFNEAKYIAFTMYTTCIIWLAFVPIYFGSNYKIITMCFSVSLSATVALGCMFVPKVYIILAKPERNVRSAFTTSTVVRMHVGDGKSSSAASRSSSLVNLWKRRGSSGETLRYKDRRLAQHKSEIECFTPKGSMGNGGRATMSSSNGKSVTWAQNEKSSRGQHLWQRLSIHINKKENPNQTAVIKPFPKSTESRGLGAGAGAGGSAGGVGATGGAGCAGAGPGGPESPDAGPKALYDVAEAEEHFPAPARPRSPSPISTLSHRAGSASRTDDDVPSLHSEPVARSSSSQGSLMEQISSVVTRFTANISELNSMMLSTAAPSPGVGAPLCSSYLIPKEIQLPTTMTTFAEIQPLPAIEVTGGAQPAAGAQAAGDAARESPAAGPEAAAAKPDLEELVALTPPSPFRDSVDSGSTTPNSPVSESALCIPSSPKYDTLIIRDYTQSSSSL

Row | Compound | pEC50
1 | CC1(C)CN(C(=O)c2cccc(N3CCCC3)n2)CCN1C(=O)c1ncn(-c2cccc(Cl)c2)n1 [Example 51] | 6.99
2 | COc1ccc(C(=O)N2CCN(C(=O)c3ncn(-c4ccccc4)n3)C(C)(C)C2)o1 [Example 132] | 5.74
3 | CC1(C)CN(C(=O)c2cccc(Cl)c2)CCN1C(=O)c1ncn(-c2cc(F)ccc2F)n1 [Example 195] | 6.00
4 | COc1ccc(C(=O)N2CCN(C(=O)c3ncn(-c4ccccc4)n3)C(C)(C)C2)s1 [Example 119] | 6.16
5 | C#CCOc1cccc(C(=O)N2CCN(C(=O)c3ncn(-c4cccc(Cl)c4)n3)C(C)(C)C2)c1 [Example 72] | 7.19
6 | CC1(C)CN(C(=O)c2cc3ccccn3c2)CCN1C(=O)c1ncn(-c2cccc(Cl)c2)n1 [Example 58] | 6.98
7 | Cc1cc(C(=O)N2CCN(C(=O)c3ncn(-c4cccc(Cl)c4)n3)C(C)(C)C2)ccc1F [Example 64] | 6.58
8 | CC1(C)CN(C(=O)c2cccc(C3(F)COC3)c2)CCN1C(=O)c1ncn(-c2cccc(Cl)c2)n1 [Example 23] | 7.24
9 | CC1(C)CN(C(=O)c2cccc(C3CC3)c2)CCN1C(=O)c1ncn(-c2ccccc2)n1 [Example 136] | 7.28
10 | CC1(C)CN(C(=O)c2cccc(C3CC3)n2)CCN1C(=O)c1ncn(-c2cccc(Cl)c2)n1 [Example 16] | 7.39
11 | CCOc1cccc(C(=O)N2CCN(C(=O)c3ncn(-c4cccc(Cl)c4)n3)C(C)(C)C2)n1 [Example 62] | 6.06
12 | CC1(C)CN(C(=O)c2cccc(Cl)c2)CCN1C(=O)c1ncn(-c2ccccc2F)n1 [Example 194] | 6.31
13 | COc1cccc(C(=O)N2CCN(C(=O)c3nnn(-c4ccc(F)cc4)n3)C(C)(C)C2)n1 [Example 200] | 6.88
14 | COc1cccc(C(=O)N2CCN(C(=O)c3ncn(-c4cccc(Br)c4)n3)CC2C)n1 (centres unmarked) [Example 245] | 6.45
15 | COc1cccc(C(=O)N2CCN(C(=O)c3ncn(-c4ccccc4)n3)C(C)C2)n1 (centres unmarked) [Example 298] | 6.21
16 | CCc1ccc(C(=O)N2CCN(C(=O)c3ncn(-c4cccc(Cl)c4)n3)C(C)(C)C2)s1 [Example 83] | 7.19
17 | Cn1nc(C(=O)N2CCN(C(=O)c3ncn(-c4cccc(Cl)c4)n3)C(C)(C)C2)c2ccccc21 [Example 77] | 6.74

Second part, the compound after the results:

Row | pEC50 | Compound
18 | 6.69 | C[C@H]1CN(C(=O)c2ncn(-c3cccc(F)c3)n2)CCN1C(=O)c1cc(Br)c(Br)o1 [Example 256, (S)-[4-(4,5-Dibromo-furan-2-carbonyl)-3-methyl-piperazin-1-yl]-[1-(3-fluoro-phenyl)-1H-[1,2,4]triazol-3-yl]-methanone]
19 | 6.63 | CC1CN(C(=O)c2cc(Cl)c3c(c2)OCCO3)CCN1C(=O)c1ncn(-c2cccc(Cl)c2)n1 (centres unmarked) [Example 283]
20 | 6.42 | COc1cccc(C(=O)N2CCN(C(=O)c3ncn(-c4cccc(Br)c4)n3)C(C)C2)n1 (centres unmarked) [Example 299]
21 | 6.39 | COc1cccc(C(=O)N2CCN(C(=O)c3ncn(-c4cccc(F)c4)n3)C(C)C2)n1 (centres unmarked) [Example 297]
22 | 6.30 | CC1CN(C(=O)c2ncn(-c3cccc(Cl)c3)n2)CCN1C(=O)c1cccc(-c2ccn(C)n2)c1 (centres unmarked) [Example 225]
23 | 6.79 | COc1cccc(C(=O)N2CCN(C(=O)c3ncn(-c4cccc(Cl)c4)n3)[C@H](C)C2)n1 [Example 301, (R)-{4-[1-(3-Chloro-phenyl)-1H-[1,2,4]triazole-3-carbonyl]-3-methyl-piperazin-1-yl}-(6-methoxy-pyridin-2-yl)-methanone]
24 | 6.50 | CC1CN(C(=O)c2ncn(-c3cccc(Cl)c3)n2)CCN1C(=O)c1cc(Br)c(Br)o1 (centres unmarked) [Example 210, [1-(3-Chloro-phenyl)-1H-[1,2,4]triazol-3-yl]-[4-(4,5-dibromo-furan-2-carbonyl)-3-methyl-piperazin-1-yl]-methanone]
25 | 6.22 | CC(C)COc1cccc(C(=O)N2CCN(C(=O)c3ncn(-c4cccc(Cl)c4)n3)C(C)C2)c1 (centres unmarked) [Example 282]
26 | 6.10 | CC1CN(C(=O)c2ncn(-c3cccc(Cl)c3)n2)CCN1C(=O)c1cccc2c1OCO2 (centres unmarked) [Example 220]
